Square brackets hold non-standard residues; d marks the D form. Peptide text beside a SMILES is read from it. dPip = O=C(O)[C@H]1CCCCN1; Sar = CNCC(=O)O
How the values were obtained:
human plasma [1] = experiment: Human plasma anticoagulation, thrombin time (TT); settings: concentration required to double the thrombin time, linear extrapolation
Procedure: (§1) Dog plasma and rat plasma is obtained from conscious mixed-breed hounds (either sex, Hazelton-LRE, Kalamazoo, Mich., U.S.A.) or from anesthetized male Sprague-Dawley rats (Harlan Sprague-Dawley, Inc., Indianapolis, Ind., U.S.A.) by venipuncture into 3.8 percent citrate. Fibrinogen is prepared from in-date ACD human blood as the fraction I-2 according to previous procedures and specifications. Smith, Biochem. J., 185, 1-11 (1980); and Smith, et al., Biochemistry, 11, 2958-2967 (1972). Human fibrinogen is also purchased as 98 percent pure/plasmin free from American Diagnostica, Greenwich, Conn. Coagulation reagents ACTIN, Thromboplastin, and Human plasma are from Baxter Healthcare Corp., Dade Division, Miami, Fla. Bovine thrombin from Parke-Davis ([…], Mich.) is used for coagulation assays in plasma.
(§2) Coagulation assay procedures are as previously described. Smith, et al., Thrombosis Research, 50, 163-174 (1988). A CoAScreener coagulation instrument (American LABor, Inc.) is used for all coagulation assay measurements. The prothrombin time (PT) is measured by adding 0.05 mL saline and 0.05 mL Thromboplastin-C reagent to 0.05 mL test plasma. The activated partial thromboplastin time (APTT) is measured by incubation of 0.05 mL test plasma with 0.05 mL Actin reagent for 120 seconds followed by 0.05 mL CaCl2 (0.02 M). The thrombin time (TT) is measured by adding 0.05 mL saline and 0.05 mL thrombin (10 NIH units/mL) to 0.05 mL test plasma. The compounds of formula I are added to human or animal plasma over a wide range of concentrations to determine prolongation effects on the APTT, PT, and TT assays. Linear extrapolations are performed to estimate the concentrations required to double the clotting time for each assay.

human plasma [2] = experiment: Human plasma anticoagulation, activated partial thromboplastin time (APTT); settings: concentration required to double the APTT, linear extrapolation
Procedure: as §1, §2

Bovine trypsin = target: T1, Bovine trypsin (Bos taurus, UniProt P00760); experiment: Serine protease selectivity, Kass, trypsin chromogenic assay; type: biochemical; settings: apparent association constant
T1 construct: purchased Worthington Biochemicals, Freehold, N.J
T1 sequence (P00760 24-246): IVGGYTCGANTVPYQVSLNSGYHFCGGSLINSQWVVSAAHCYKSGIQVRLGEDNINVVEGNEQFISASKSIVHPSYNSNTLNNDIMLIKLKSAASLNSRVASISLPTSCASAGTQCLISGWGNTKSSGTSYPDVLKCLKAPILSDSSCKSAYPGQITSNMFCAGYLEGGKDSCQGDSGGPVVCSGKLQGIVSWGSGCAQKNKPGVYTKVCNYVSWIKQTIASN
Procedure: (§3) By substantially following the procedures described above for human thrombin, and using other human blood coagulation system serine proteases and proteases of the fibrinolytic system with the appropriate chromogenic substrates, identified below, selectivity of the compounds of the present invention with respect to the coagulation factor serine proteases and with respect to the fibrinolytic system serine proteases are evaluated as well as their substantial lack of interference with serine proteases of the fibrinolytic system. Thrombin inhibitors preferably should spare fibrinolysis induced by urokinase, tissue plasminogen activator (t-PA) and streptokinase. This would be important to the therapeutic use of such agents as an adjunct to streptokinase, t-PA or urokinase thrombolytic therapy and to the use of such agents as an endogenous fibrinolysis-sparing (with respect to t-PA and urokinase) antithrombotic agent. In addition to the lack of interference with the amidase activity of the fibrinolytic proteases, such fibrinolytic system sparing can be studied by the use of human plasma clots and their lysis by the respective fibrinolytic plasminogen activators.
(§4) Human factors X, Xa, IXa, XIa, and XIIa are purchased from Enzyme Research Laboratories, South Bend, Ind.; human urokinase from Leo Pharmaceuticals, Denmark; and recombinant activated Protein C (aPC) is prepared at Eli Lilly and Co. substantially according to U.S. Pat. No. 4,981,952 incorporated by reference herein in its entirety. Chromogenic substrates: N--Benzoyl--Ile--Glu--Gly--Arg--p--nitroanilide (for factor Xa); N--Cbz--D--Arg--Gly--Arg--p--nitroanilide (for factor IXa assay as the factor Xa substrate); Pyroglutamyl--Pro--Arg--p--nitroanilide (for Factor XIa and for aPC); H--D--Pro--Phe--Arg--p--nitroanilide (for factor XIIa); and Pyroglutamyl--Gly--Arg--p--nitroanilide (for urokinase); are purchased from KabiVitrum, Stockholm, Sweden, or from Midwest Biotech, Fishers, Indiana. Bovine trypsin is purchased from Worthington Biochemicals, Freehold, N.J., and human plasma kallikrein from Kabi Vitrum, Stockholm, Sweden. Chromogenic substrate H--D--Pro--Phe--Arg--p--nitroanilide for plasma kallikrein is purchased from Kabi Vitrum, Stockholm, Sweden. N--Benzoyl--Phe--Val--Arg--p--nitroanilide, the substrate for human thrombin and for trypsin, is synthesized according to procedures described above for the compounds of the present invention, using known methods of peptide coupling from commercially available reactants or purchased from Midwest Biotech, Fishers, Ind.

factor Xa = target: T2, factor Xa (Homo sapiens, UniProt P00742); experiment: Serine protease selectivity, Kass, factor Xa chromogenic assay; type: biochemical; settings: apparent association constant
T2 construct: Human factors X, Xa, IXa, XIa, and XIIa are purchased from Enzyme Research Laboratories; purchased Enzyme Research Laboratories, South Bend, Ind
T2 sequence (P00742 235-488 limits assumed): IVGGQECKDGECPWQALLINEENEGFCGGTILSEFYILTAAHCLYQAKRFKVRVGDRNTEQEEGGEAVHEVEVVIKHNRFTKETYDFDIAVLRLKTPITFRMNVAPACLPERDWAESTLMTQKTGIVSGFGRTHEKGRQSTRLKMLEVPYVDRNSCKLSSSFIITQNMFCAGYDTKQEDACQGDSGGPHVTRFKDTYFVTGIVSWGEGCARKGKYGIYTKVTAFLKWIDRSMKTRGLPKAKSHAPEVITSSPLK
T2 sequence (P00742 41-179 partner limits assumed): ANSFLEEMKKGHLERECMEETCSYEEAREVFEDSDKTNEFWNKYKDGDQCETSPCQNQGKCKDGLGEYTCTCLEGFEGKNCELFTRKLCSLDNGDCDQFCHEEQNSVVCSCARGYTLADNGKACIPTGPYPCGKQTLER
Procedure: as §3, §4

[3] = target: T3, tissue plasminogen activator (t-PA) (Homo sapiens, UniProt P00750); experiment: Fibrinolytic protease selectivity, Kass, t-PA chromogenic assay; type: biochemical; settings: apparent association constant
T3 construct: purchased American Diagnostica, Greenwich, Conn
T3 sequence (P00750 36-562): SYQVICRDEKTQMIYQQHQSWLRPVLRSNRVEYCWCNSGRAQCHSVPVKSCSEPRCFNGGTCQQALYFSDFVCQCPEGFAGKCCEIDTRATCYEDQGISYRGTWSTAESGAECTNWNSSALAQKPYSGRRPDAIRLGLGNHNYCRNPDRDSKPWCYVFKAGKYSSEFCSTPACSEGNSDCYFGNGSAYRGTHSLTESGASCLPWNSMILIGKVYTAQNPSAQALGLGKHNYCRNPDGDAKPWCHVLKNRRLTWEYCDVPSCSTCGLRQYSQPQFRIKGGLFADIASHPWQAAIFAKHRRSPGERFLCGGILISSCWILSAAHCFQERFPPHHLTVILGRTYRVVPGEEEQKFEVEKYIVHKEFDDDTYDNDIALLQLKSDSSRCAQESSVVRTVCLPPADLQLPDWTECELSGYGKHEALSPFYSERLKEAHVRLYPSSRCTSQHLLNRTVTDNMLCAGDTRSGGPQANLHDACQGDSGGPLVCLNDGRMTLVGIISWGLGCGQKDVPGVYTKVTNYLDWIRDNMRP
Procedure: as §3
Human plasmin is purchased from Boehringer Mannheim, Indianapolis, Indiana; nt-PA is purchased as single chain activity reference from American Diagnostica, Greenwich, Conn.; modified-t-PA6 (mt-PA6) is prepared at Eli Lilly and Company by procedure known in the art (See, Burck, et al., J. Biol. Chem., 265, […] (1990). Plasmin chromogenic substrate H--D--Val--Leu--Lys--p--nitroanilide and tissue plasminogen activator (t-PA) substrate H--D--Ile--Pro--Arg--p--nitroanilide are purchased from Kabi Vitrum, Stockholm, Sweden.

Enzyme Kass Trypsin (Bovine trypsin) | Enzyme Kass Xa (factor Xa) | Enzyme Kass t-PA [3] | SMILES | Human Plasma Anticoagulation 2 × Clotting time TT (human plasma [1]) | Human Plasma Anticoagulation 2 × Clotting time APTT (human plasma [2])
0.88 L/mol × 10^6 | 0.13 L/mol × 10^6 | 0.0039 L/mol × 10^6 | CN(CC(=O)N[C@H](C=O)CCCNC(=N)N)C(=O)[C@H]1CCCCN1.Cl.Cl [Example 1, D-homoprolyl-N-methylglycyl-L-argininal dihydrochloride] (H-[dPip]-[Sar]-Arg-aldehyde) | 160 ng/mL | 2,800 ng/mL
2.7 L/mol × 10^6 | 4.4 L/mol × 10^6 | 0.009 L/mol × 10^6 | Cl.Cl.N=C(N)NCCC[C@@H](C=O)NC(=O)CN(CCc1ccccc1)C(=O)[C@H]1CCCCN1 [Example 8, D-homoprolyl-N-(2-phenylethyl)glycyl-L-argininal dihydrochloride] | 64 ng/mL | 6,600 ng/mL

SMILES | Enzyme Kass Trypsin (Bovine trypsin) | Enzyme Kass Xa (factor Xa) | Enzyme Kass t-PA [3] | Human Plasma Anticoagulation 2 × Clotting time TT (human plasma [1]) | Human Plasma Anticoagulation 2 × Clotting time APTT (human plasma [2])
CC(C)CCN(CC(=O)N[C@H](C=O)CCCN=C(N)N)C(=O)[C@H]1CCCCN1.Cl.Cl [Example 6, D--hPro--N(isoamyl)Gly--ArgH.2HCl] | 5.9 L/mol × 10^6 | 0.071 L/mol × 10^6 | 0.004 L/mol × 10^6 | 170 ng/mL | 3,200 ng/mL
